Source: paper PMC3082957 (ACS chemical neuroscience, 2011)

How the values were obtained:
Assay type in all cases: cell-based
[1] = system: voltage-gated Na+ channels in CAD cells
[2] = system: voltage-gated Na+ channels in CAD cells; remark: listed apart in the source
[3] = system: voltage-gated Na+ channels in CAD cells; settings: for fraction of channels in a slow-inactivated state (1 minus the normalized INa): at −50 mV
[4] = system: voltage-gated Na+ channels in CAD cells; experiment: Frequency; settings: 100 µM; 30 pulses at 10 Hz, holding −80 mV
[5] = system: voltage-gated Na+ channels in CAD cells; settings: 100 µM
[6] = system: voltage-gated Na+ channels in CAD cells; experiment: Rate of development of inhibition/slow inactivation of Na+ currents in CAD cells; settings: 100 µM; vehicle 0.51 ± 0.08
[7] = 30 µM, UV irradiation, then washed 5 min

| Compound | recovery of current amplitude at −10 mV after wash compared with pre-drug values ([1]; 100 µM, 10 min, 5-min wash) | effect on slow inactivation following the 5-min wash ([1]; 100 µM, 10 min at 37 °C, then 5-min wash, −50 mV) | reduction of peak inward Na+ current ([2]; 100 µM, CAD cells held at −80 mV, versus 0.1% DMSO) | slow inactivation observed at potentials more depolarized than ([3]; 100 µM) | fraction of Na+ current available at −50 mV ([3]; 100 µM, 5 s conditioning prepulse) | maximal fraction of current unavailable by depolarization ([3]; 100 µM, 20 mV as printed, control 0.62 ± 0.03) | fraction of channels in a slow-inactivated state (1 minus the normalized INa) ([3]; 100 µM) | peak current lower than control by the last pulse [4] | V1/2 of steady-state fast inactivation ([5]; DMSO control −67.5 ± 1.0 mV, not different (p > 0.05)) | fraction of current available at 8 s prepulse duration [6] | Na+ channels remaining in a slow-inactivated state [1, 7] | recovery of current amplitude at −10 mV compared with DMSO control or UV alone [1, 7] | Na+ channels accumulated in the slow-inactivated state ([1]; 30 µM, photoactivated 365 nm 8 min then 312 nm 1 min) | Na+ channels in the slow-inactivated state ([1]; 30 µM, without light) | changes in steady-state activation or fast inactivation ([1]; pre-drug, drug, UV and washout conditions, (R)-5 40 µM, (R)-6 40 µM, (R)-7 30 µM) | IC50 for slow inactivation, fold lower compared with (R)-1 ([3]; CAD cells, versus IC50 85 µM of (R)-1) | slope (k) of fast inactivation curve, shallower than DMSO-treated cells ([5]; p<0.05) | block of Na+ current [2] |
| --- | --- | --- | --- | --- | --- | --- | --- | --- | --- | --- | --- | --- | --- | --- | --- | --- | --- | --- |
| COC[C@@H](NC(C)=O)C(=O)NCc1ccccc1 [(R)-1, (R)-N-benzyl 2-acetamido-3-methoxypropionamide] | 74% | completely reversed | 40% | > −80 mV | 0.35 ± 0.01 fractional units | 0.26 ± 0.01 | 0.65 ± 0.08 | ~ 10% | −69.5 ± 1.3 mV | 0.31 ± 0.01 | – | – | – | – | – | – | – | – |
| COC[C@@H](NC(C)=O)C(=O)NCc1ccc(C2(C(F)(F)F)N=N2)cc1 [(R)-7] | – | – | – | – | – | – | 0.66 ± 0.05 | – | – | – | about 10% | 87% | about 35% | 65% | no changes | 7.1 fold | about 55% | – |
| NC1=N[C@H](O)[C@H]2[C@H]3O[C@]4(O)O[C@@H]([C@@H](O)[C@@]2(N1)[C@@H]4O)[C@]3(O)CO [tetrodotoxin] | – | – | – | – | – | – | – | – | – | – | – | – | – | – | – | – | – | almost all of the current was blocked |
